Results as given in patent US20210223266A1, “METHODOLOGIES AND METHODS FOR MEASURING HIGHER MOLECULAR WEIGHT TRANSTHYRETIN OR EQUIVALENTS AS A CLINICAL BIOMARKER” (TTR Therapeutics, priority 2019, published 2021).

Experiments:
TTR tetramer = target: T1, TTR tetramer (Homo sapiens, UniProt P02766); conditions: wtATTR-CM, off-label diflunisal; untreated 22 mg/dL (12-29); cited from earlier work
T1 construct: TTR tetramer levels were measured by immunoturbidimetric (IT) assays by Abbot Laboratories; from tissue; host or cells: blood samples of human wtATTR-CM patients (literature study, Circ Heart Fail 2018)

wtATTR-CM patients = conditions: p<0.001; cited from earlier work
TTR [1] = target: TTR (Homo sapiens, UniProt P02766, V142I); assay: TTR levels in ATTR-CM patients on tafamidis 20 mg QD (Fx1B-201), immunoturbidimetric assays; type: in vivo; conditions: V1221 mATTR-CM patients
Method: (§1) We believe these levels were measured using immunoturbidimetric assays performed by Genzyme Analytic Services.

TTR [2] = target: TTR (Homo sapiens, UniProt P02766); assay: as above; type: in vivo; conditions: wtATTR-CM patients
Method: as §1

ATTR-CM patients = conditions: cited from earlier work
TTR [3] = assay: TTR levels at tafamidis 20 vs 80 mg, Phase 3 ATTR-ACT trial; type: in vivo, human; conditions: proprietary analysis
Method: We believe our discovery has relevance to the recently reported Phase 3 ATTR-ACT trial that readout positive mortality reduction with pooled tafamidis (20 mg and 80 mg QD) vs placebo. […] This is in line with one of Pfizer's expectations for the Phase 3 protocol (Maurer 2018, Phase 3 Final Protocol, 31 Jul. 2013. PF-06291826 Tafamidis Meglumine. B3461028) when looking at the plot of % TTR stabilization (y-axis) and molar ratio of tafamidis in FIG. 5: TTR levels (μM). We highlighted in red the wide ranges for pharmacodynamic effects related to 80 mg relative to 20 mg (in blue shade) to point out (1) potential for both dose-strengths to nearly overlap, (2) plotted data points were from Phase 1 data in healthy volunteers using liquid formulations of tafamidis (not capsule formulation given in Phase 3 ATTR-ACT trial), and (3) 80 mg PD expectations were calculated as a 4× multiple of 20 mg PD data, which could be important given PK variations may have not been optimized and could explain differences seen in Phase 3 ATTR-ACT clinical trial which tested 20 mg and 80 mg doses of tafamidis.

[4] = oral tafamidis (presumably 20 mg QD) long-term; cited from earlier work
HMW TTR = conditions: V30M ATTR patients; cited from earlier work
[5] = system: ATTR patients with mutated TTR (V30M); conditions: cited from earlier work
[6] = Tafamidis exposure in vitreous fluid / across blood-brain barrier after oral dosing; type: in vivo, human; conditions: long-term
Description: Multiple publications have reported reduced serum TTR levels, as measured by nephelometry or radial immunodiffusion (commercial kits readily available), in familial amyloid polyneuropathy patients with vitreous amyloidosis. “Prealbumin. A major constituent of vitreous amyloid,” Ophthalmology. 1987 July; 94(7):792-8. […] “Transthyretin deposition in the eye in the era of effective therapy for hereditary ATTRV30M amyloidosis,” https://doi.org/10.1080/13506129.2018.1554563.

native TTR = conditions: Taf Group; no Taf Group 273.8 nM, non-ATTR controls 271.5 nM; not significantly different; cited from earlier work
[7] = system: TTR-assisted beta-amyloid (Aβ) transport; conditions: cited from earlier work

Structure (SMILES): O=C(O)c1cc(-c2ccc(F)cc2F)ccc1O [diflunisal]
- TTR levels after one year (TTR tetramer): 30 mg/dL
- one-year survival-rates vs untreated (wtATTR-CM patients): improved one-year survival-rates

Structure (SMILES): O=C(O)c1ccc2nc(-c3cc(Cl)cc(Cl)c3)oc2c1 [tafamidis]
- increase of TTR levels from baseline (TTR [1]): 50-60%
- increase of TTR levels from baseline (TTR [2]): ~17%
- lower death-rates at month-30 compared to untreated (ATTR-CM patients; ATTR-CM patients, 20 mg tafamidis, long-term follow-up): ~40%
- rate at month-30 (77% vs 45% untreated) (ATTR-CM patients; ATTR-CM patients, 20 mg tafamidis): 77%
- reduction in death-rate at month-30 vs placebo (ATTR-CM patients; Phase 3 ATTR-ACT, pooled 20 mg QD and 80 mg QD, mATTR and wtATTR-CM): ~30%
- differences in TTR levels between the two dose-strengths (TTR [3]): ~1 mg/dL
- drug levels in the vitreous fluid [4]: detectable drug levels
- HMW TTR levels (HMW TTR): increase HMW TTR levels
- ocular abnormalities ([5]; 20 mg/day, liver transplant 34%, supportive therapy 26%): 22%
- ocular abnormalities compared to untreated or liver transplantation ([5]; ATTR-PN, long-term treatment (>5 years), p=0.09 vs untreated, p=0.007 vs liver transplantation): lower ocular abnormalities
- blood-brain barrier crossing [6]: can cross the blood-brain barrier
- Average [native TTR] in the CSF (native TTR): 265.8 nM

Structure (SMILES): O=C(O)c1cc(-c2ccc(F)cc2F)cc(I)c1O [iodo-diflunisal]
- TTR-assisted beta-amyloid (Aβ) transport [7]: enhanced
